Measurements taken from patent US20220152090A1, “METHOD FOR TREATING AMYLOIDOGENIC DISEASE” (priority 2020, published 2022).

Legend:
[1] = system: SH-SY5Y cells; test: Cell viability (CCK8) of Aβ42-treated neuronal cells; assay type: cell-based
Description: The general procedures used for preparing the transient LPS-Aβ42 complex and the validation of cell cytotoxicity were as follows. First, Aβ42 (100 μM) and LPS (1000 nM, derived from Escherichia coli O111:B4, Sigma-Aldrich) were added to each group medium containing 2.5% dimethyl sulfoxide (DMSO) and then sterilized by using UV light. The medium was then replaced and the remaining mixture was incubated for 72 hours at 37° C. in 5% CO2 humidified air. Cell viability was measured using the CCK8 (Sigma-Aldrich 96992) assay according to the manufacturer's protocol. A 0.22-μm filter (non-pyogenic, Millex®-GV) was used to remove unbound LPS, if needed, in the LPS-Aβ42 solution.
Cell viability. Neural cells were maintained in MEM (Gibco 11095-080) supplemented with 10% FBS and 1×MEM NEAA (Gibco 11140-050). Neural SH-SY5Y cells were plated at a density of 8000 cells per well in 96-well plates (Costar 3599) and allowed to attach overnight at 37° C. in 5% CO2 humidified air. Aβ42 (100 μM), LPS (1000 nM), SAuM (1000 nM), or colistin (1000 nM) were then added to each group medium containing 2.5% dimethyl sulfoxide (DMSO) and sterilized by using UV light. The medium was then replaced every day and the remaining mixture was incubated for 72 hours at 37° C. in 5% CO2 humidified air. Cell viability was measured using the CCK8 (Sigma-Aldrich 96992) assay according to the manufacturer's protocol. A 0.22-μm filter (non-pyogenic, Millex®-GV) was used to remove unbound LPS, if needed, in the LPS-Aβ42 solution.

[2] = target: T1, Aβ42 (Homo sapiens, UniProt P05067); test: Western blot of Aβ42 degradation in SH-SY5Y cells; assay type: cell-based; conditions: for LPS-induced degradation of Aβ42 in the presence of inhibitor: SH-SY5Y; for Aβ42 degradation in SH-SY5Y cells co-treated with the agent: Western blotting, FIG. 13
T1 construct: Aβ42 peptides were collected from the entire volume of the cell culture medium and total cell lysates; host or cells: Peptide added to the medium of SH-SY5Y cells; not made by the cells
T1 sequence (P05067 672-713 limits assumed): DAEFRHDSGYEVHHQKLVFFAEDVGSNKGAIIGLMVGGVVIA
Description: Western Blots. To assess the level of Aβ42 in the cell culture medium, Aβ42 peptides were collected from the entire volume of the cell culture medium and total cell lysates and mixed with protein sample buffer (final 0.1 M Tris-HCl, pH6.8, 10% glycerol, 2% SDS, 1% […], and 0.01% bromophenol blue) for Western blot analysis. The samples of cell mixture were analyzed by SDS-PAGE gel electrophoresis and transferred to a PVDF membrane (Millipore). After blocking with blocking buffer containing 5% w/v nonfat dry milk in PBST (1× phosphate-buffered saline and 0.1% Tween 20) at room temperature for 1 h, the membrane was incubated with a primary antibody diluted in the blocking buffer at 4° C. overnight. After hybridization with primary antibody, the membrane was washed three times with PBST before the addition of an HRP-conjugated secondary antibody against the primary antibody. The membrane was then washed three times with PBST before immunoreactive bands were detected by chemiluminescence (PerkinElmer) or Ponceau S staining (Bersting Technology).

Row | Molecule | rescue effect of LPS against Aβ42 neuronal toxicity in the presence of inhibitor [1] | LPS-induced degradation of Aβ42 in the presence of inhibitor [2] | Aβ42 degradation in SH-SY5Y cells co-treated with the agent [2]
1 | Cn1cnc(=N)c2[nH]cnc21 [3MA, methyladenine] | increasing the cell death | decreasing the degradation of Aβ42 | 
2 | CO/C1=C\C(C)=C\[C@@H](C)[C@@H](O)[C@@H](C)C/C(C)=C/C=C/[C@H](OC)[C@@H]([C@@H](C)[C@@H](O)[C@H](C)[C@@]2(O)C[C@@H](O)[C@H](C)[C@@H](C(C)C)O2)OC1=O [BA, bafilomycin A1] | increasing the cell death | decreasing the degradation of Aβ42 | 
3 | CCCCCCCCCCC[C@@H](O)CC(=O)N[C@H]1[C@H](OC[C@H]2O[C@H](OP(=O)(O)O)[C@H](NC(=O)C[C@H](O)CCCCCCCCCCC)[C@@H](OC(=O)C[C@H](O)CCCCCCCCCCC)[C@@H]2O)O[C@H](CO)[C@@H](OP(=O)(O)O)[C@@H]1OC(=O)C[C@H](O)CCCCCCCCCCC [PIX, 2-deoxy-6-O-(2-deoxy-3-O-[(3R)-3-hydroxytetradecanoyl]-2-{[(3R)-3-hydroxytetradecanoyl]amino}-4-O-phosphono-β-D-glucopyranosyl)-3-O-[(3R)-3-hydroxytetradecanoyl]-2-{[(3R)-3-hydroxytetradecanoyl]amino}-1-O-phosphono-α-D-glucopyranose] |  |  | able to cause Aβ42 degradation
4 | CCCCCCCCCCC[C@@H](O)CC(=O)N[C@H]1[C@H](OC[C@H]2OC(O)[C@H](NC(=O)C[C@H](O)CCCCCCCCCCC)[C@@H](OC(=O)C[C@H](O)CCCCCCCCCCC)[C@@H]2O)O[C@H](CO)[C@@H](OP(=O)(O)O)[C@@H]1OC(=O)C[C@H](O)CCCCCCCCCCC (stereo partly drawn) [PXI, 2-deoxy-6-O-(2-deoxy-3-O-[(3R)-3-hydroxytetradecanoyl]-2-{[(3R)-3-hydroxytetradecanoyl]amino}-4-O-phosphono-β-D-glucopyranosyl)-3-O-[(3R)-3-hydroxytetradecanoyl]-2-{[(3R)-3-hydroxytetradecanoyl]amino}-D-glucopyranose] |  |  | able to cause Aβ42 degradation
5 | CN(C)CCCN1c2ccccc2Sc2ccc(Cl)cc21 [chlorpromazine] |  | suppressed | 
6 | O=C(N/N=C/c1ccc(O)c(O)c1)c1cc2ccccc2cc1O [dynasore] |  | suppressed | 
7 | Monophosphoryl lipid A [MPL] |  |  | able to cause Aβ42 degradation
8 | colistin | abolished |  | 
9 | methyl-β-cyclodextrin |  | suppressed | 
